Results published in patent US12653827B2, “Methods of treating indolent systemic mastocytosis” (Telios Pharma Inc., priority 2024, dated 2026).
“And” between values parts separate entries of the source, which are not always exact repeats. Equal entries are not always repeated.

Key:
[1] = Clinical study in ISM patients, total symptom score (ISM-TSAF, SISM-TSAF); format: in vivo, human; details: 100 mg or 150 mg BID
Description: Efficacy of Compound 128 will be evaluated among adult subjects diagnosed with ISM as defined by WHO diagnostic criteria. The subjects have moderate-to-severe symptoms based on minimum mean total symptom scores (TSS) of ISM-TSAF over the 14-day eligibility screening period for assessment of TSS of ISM-TSAF. Minimum baseline TSS of ISM-TSAF for eligibility is >28. Subjects will receive either 50, 75, 100 or 150 mg BID of Compound 128 plus best supportive care. Subject will be treated for twenty-four weeks and will be evaluated at twelve weeks and twenty-four weeks. Evaluation will be based on the 14-day rolling average TSS of ISM-TSAF or SISM-TSAF. The TSS of ISM-TSAF is based on patient reporting on eleven separate symptoms, measuring the severity of a broad range of mastocytosis-related symptoms over the prior 24 hours, based on a score from zero (no symptoms) to ten (worst possible symptoms experienced) scale for a TSS between 0-110. The eleven symptoms to be scored by the subject are fatigue, abdominal pain, diarrhea, skin spots, itching, flushing, brain fog, headache, dizziness and bone pain. The TSS of SISM-TSAF is based on patient reporting on nine separate symptoms based on a score from zero (no symptoms) to ten (worst possible symptoms experienced). The nine symptoms to be scored by the subject are muscle pain, runny nose, nasal congestion, wheezing, shortness of breath, throat itching, heart palpitations, difficulty concentrating, and diarrhea. The first eight items measure the severity of a broad range of mastocytosis-related symptoms over the prior 24 hours. Each of the first eight symptom is assessed on a 0 (None) to 10 (Worst Imaginable) scale for a TSS between 0-80. The 9th item measures incidence of diarrhea over the prior 24 hours. Endpoints will also be based on mean change in TSS of ISM-TSAF or SISM-TSAF based on 14-day average of patient-reported severity of ISM symptoms; mean change in serum tryptase level, KIT D816V VAF, change in best supportive care medications and change in number of anaphylactic episodes.
Five ISM patients have been treated with Compound 128 at 100 mg or 150 mg BID. At week 12, the TSS of ISM-TSAF is reduced by 28 points compared to the placebo group (FIG. 24), and the TSS of SISM-TSAF is reduced by 22.7 points, compared to the placebo (FIG. 25). In contrast, avapritinib 25 mg QD reduced the TSS of ISM-TSAF by 5.7 points at week 24 (FIG. 23). The average reduction of total symptom score of ISM-TSAF is 55% compared to the baseline while the average reduction of total symptom score of ISM-TSAF is 38% compared to the placebo group (FIG. 28).

[2] = tested on: calcium influx in human mast cells; assay: Calcium flux assay in antigen-stimulated human mast cells; format: cell-based; details: treated 2 hours, NP-BSA stimulation
Description: Human mast cells were derived from bone marrow CD34+ cells from six healthy donors for up to eight weeks by culturing CD34+ cells in StemSpan SFEM II (Stem Cell Technologies) supplemented with stem cell factor (SCF; 100 ng/mL; R&D System), IL-6 (R&D Systems), IL-3 (R&D Systems) and 1% penicillin/streptomycin (P/S; Gibco) for the first 10 days and in StemSpan SFEM II supplemented with SCF and IL-6 and 1% P/S for the remaining time in culture. […] Supernatant was collected and histamine levels were measured using a Histamine ELISA kit (Eagle Biosciences). […] Percent of activated mast cells was calculated as number of activated mast cells over the total number of mast cells.
Compound 128 Inhibits Calcium Signaling in Human Mast Cells. […] The median fluorescence intensity of cytosolic calcium was measured across the stimulation time period and graphed to represent the calcium influx profile. The area under the curve (AUC) of the calcium influx profile was calculated and normalized as a percent of stimulated control. […]

[3] = tested on: mast cells; assay: Phosphorylation and degranulation markers in antigen-stimulated mast cells grown with chronic SCF (FIG. 21); format: cell-based; details: 0.1-0.6 μM, antigen 15 minutes
Description: Histamine release, CD63 expression, CD203c expression, pBTK (Y223) levels, pP38 (T180/Y182) levels, pPLCg1 (S1248) levels, pERK (T202/Y204) levels, and pS6 (S235/236) levels are shown. Mast cells were grown with continuous (chronic) exposure to SCF and then stimulated with antigen (Ag) for 15 minutes, leading to phosphorylation of multiple kinases, including pBTK, pPLCγ1, pP38, pERK, and pS6 ribosome. This stimulation increases degranulation markers, including CD63, CD203c, and histamine release.

[4] = tested on: mast cells; assay: Return of degranulation after Compound 128 exposure and washout (FIG. 18); format: cell-based; details: flow cytometry
Text: FIGS. 18A-D show return of degranulation after Compound 128 exposure.

C=CC(=O)N1CCC(F)(CNc2ncnc(N)c2-c2ccc(Oc3ccccc3)cc2)CC1 [Compound 128, 1-(4-(((6-amino-5-(4-phenoxyphenyl)pyrimidin-4-yl)amino)methyl)-4-fluoropiperidin-1-yl)prop-2-en-1-one]
average reduction of total symptom score of ISM-TSAF compared to the placebo group [1]: 38%
average reduction of total symptom score of ISM-TSAF compared to the baseline ([1]; 12-week treatment): 55%
reduction of TSS of ISM-TSAF compared to the placebo group ([1]; week 12): 28.0 points and 28 points
reduction of TSS of SISM-TSAF compared to the placebo ([1]; week 12): 22.7 points
mast cells undergoing calcium influx (AUC, percent of stimulated control) ([2]; ISM-like (+SCF) mast cells): less than 7%
mast cells undergoing calcium influx (AUC, percent of stimulated control) ([2]; healthy (−SCF) mast cells): < 3%
phosphorylation (pBTK, pPLCγ1, pP38, pERK, pS6) and degranulation (CD63, CD203c, histamine) [3]: decrease to near basal levels
time to restoration of degranulation after inhibition [4]: ≤ 24 h
